The IC50 is the concentration that inhibits the measured activity by half.

Molecules are shown by their SMILES. Like-named read-outs stand apart in the source and are kept apart here.

Here are results for 18 molecules from patent US10894798B2, “Substituted dihydropyrrolopyrazole derivative” (UBE INDUSTRIES, LTD., priority 2015, dated 2021).

Experiment [1] relates to human large intestine cancer cell line (HCT-116). The experiment in a line: Human large intestine cancer (HCT-116) cell growth inhibition test. The format is cell-based. The procedure, abridged: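 HCT-116 cells were seeded at 0.5 to 2.0×10^3 cells/well in McCoy's 5A with 10% FBS and dosed with compound at 0.1% final DMSO after overnight culture. Growth was measured by sulforhodamine B absorbance after 3 days. GI50 was calculated from the inhibition rate at each concentration.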

In another experiment the test system is IL-17 production. The experiment is described as follows: Human PBMC various-stimulant cocktail-induced IL-17 production inhibition test. The experiment is classed as cell-based. Conditions: 120 h, human T-cell suspension from PBMC, culture for 5 days, ELISA. An excerpt:
PBMC was separated and collected by using Ficoll-Paque (manufactured by GE Healthcare Japan Corp.) from blood collected from a healthy human adult in the presence of heparin. The collected PBMC was further cultured in a flask for a certain time, and then, non-adherent cells in the supernatant were collected and used as a T-cell suspension.
A RPMI1640 medium containing 10% FBS, 1% penicillin/streptomycin/amphotericin B, essential amino acids, and pyruvic acid and containing a test compound dissolved in DMSO, a human CD28 antibody, a human IFN-γ antibody, a human IL-4 antibody, human IL-6, human IL-23, human IL-1β, and human TGF-β was added at 100 μL/well to T cell Activation Plate Anti-Human CD3 96-well plate. Subsequently, 100 μL of a T-cell suspension adjusted to 2×10^5 cells/mL was added to each well (final DMSO concentration: 0.1%). Only DMSO was added to wells not supplemented with the test compound. After culture for 5 days in a carbon dioxide incubator, the culture supernatant was collected and stored at −20° C. until IL-17 content measurement.
In the measurement of an IL-17 content in the culture supernatant, a sandwich ELISA kit (Quantikine Human IL-17, manufactured by R&D Systems, Inc.) was used. The IL-17 content of each sample was calculated from the calibration curve of Standard IL-17 included in the kit. […] The concentration of the test compound necessary for inhibiting 50% of IL-17 production (IC50 value) was calculated from the concentration of the added test compound and the rate of inhibition of IL-17 production by the test compound by using EXSUS (version 8.1.0, manufactured by CAC Exicare Corp.).
On the technique in general: ELISA stands for enzyme-linked immunosorbent assay.

The test system of experiment [2] is human large intestine cancer cell (HCT 116) tumor. The experiment in a line: Tumor growth inhibition test in HCT 116-subcutaneously transplanted nude mouse. The format is in vivo. Conditions: dose of 100 mg/kg, repeated oral administration, HCT-116 in female BALB nude mice, control group = 100%, read-out: rate of suppression of tumor volume. The protocol: A human large intestine cancer cell line (HCT-116) was cultured in a McCoy's 5A medium containing 10% FBS and 1% penicillin/streptomycin/amphotericin B and adjusted to 1.0×10^8 cells/mL with PBS or Hanks solution (HBSS(−)). The prepared cell suspension was subcutaneously injected at 0.1 mL/mouse to the right abdomens of female BALB nude mice (supplied by Charles River Laboratories Japan, Inc.). After rearing for a certain period, the long diameter (mm) and short diameter (mm) of tumor were measured with electronic calipers, and the tumor volume was calculated according to the following expression: Tumor volume (mm^3)=(Long diameter)×(Short diameter)×(Short diameter)×0.5
Individuals whose tumor volume was within the range of 50 to 200 mm^3 were selected and grouped such that the tumor volume was almost equivalent, then a test compound or only a solvent was orally administered in a repeated manner, and the body weights and tumor volume were measured. A test compound was suspended in a 0.5 w/v % aqueous methylcellulose solution (0.5% MC) (manufactured by Wako Pure Chemical Industries, Ltd.) and orally administered at 10 mL/kg in a repeated manner. When the tumor volume of the control group was defined as 100%, the rate of suppression of tumor volume (%) at each dose of the test compound was calculated.

[3] abbreviates: HCT-116 (row of Table 50), read-out: GI50 value (concentration necessary for inhibiting 50% of cell growth).
Where [4] appears, read: HCT-116, 72 h, culture for 3 days, sulforhodamine B, read-out: GI50 value, HCT-116 cell growth inhibition.

With `CC1(C)c2[nH]nc(NC(=O)C3([Si](C)(C)C)CCC3)c2CN1C(=O)Nc1ccccc1F` [IV-3, N-(2-Fluorophenyl)-6,6-dimethyl-3-[1-(trimethylsilyl)cyclobutanecarboxamido]-4,6-dihydropyrrolo[3,4-c]pyrazole-5(1H)-carboxamide], the GI50 was < 300 nM in experiment [1] (setting [3]) and ≤ 100 nM in experiment [1] (setting [4]). In the experiment on IL-17 production, the IC50 is ≤ 100 nM. Besides, in experiment [2], the inhibition in vivo at 100 mg/kg is ≥ 50%.
Regarding `CC1(C)c2[nH]nc(NC(=O)C3([Si](C)(C)C)CCC3)c2CN1C(=O)Nc1ccccc1Br` [IV-15, N-(2-Bromophenyl)-6,6-dimethyl-3-[1-(trimethylsilyl)cyclobutanecarboxamido]-4,6-dihydropyrrolo[3,4-c]pyrazole-5(1H)-carboxamide], in experiment [1] (setting [4]), the GI50 was ≤ 100 nM. Besides, in experiment [2], the inhibition in vivo at 100 mg/kg is ≥ 50%.
As to `Cc1ccccc1NC(=O)N1Cc2c(NC(=O)C3([Si](C)(C)C)CCC3)n[nH]c2C1(C)C` [IV-21, 6,6-Dimethyl-N-(o-tolyl)-3-[1-(trimethylsilyl)cyclobutanecarboxamido]-4,6-dihydropyrrolo[3,4-c]pyrazole-5(1H)-carboxamide], in experiment [1] (setting [4]), the GI50 is ≤ 100 nM. In experiment [2], the inhibition in vivo at 100 mg/kg was ≥ 50%.
In the same order, the values of `CC1(C)c2[nH]nc(NC(=O)C3([Si](C)(C)C)CCC3)c2CN1C(=O)Nc1c(F)cccc1Cl` [IV-113, N-(2-Chloro-6-fluorophenyl)-6,6-dimethyl-3-[1-(trimethylsilyl)cyclobutanecarboxamido]-4,6-dihydropyrrolo[3,4-c]pyrazole-5(1H)-carboxamide] are ≤ 100 nM and ≥ 50%.
As for `Cc1ccc(F)c(NC(=O)N2Cc3c(NC(=O)C4([Si](C)(C)C)CCC4)n[nH]c3C2(C)C)c1` [IV-127, N-(2-Fluoro-5-methylphenyl)-6,6-dimethyl-3-[1-(trimethylsilyl)cyclobutanecarboxamido]-4,6-dihydropyrrolo[3,4-c]pyrazole-5 (1H)-carboxamide], the GI50 in experiment [1] (setting [4]) was ≤ 100 nM. For the same molecule, the inhibition in vivo at 100 mg/kg in experiment [2] was ≥ 50%.
With `Cc1cccc(F)c1NC(=O)N1Cc2c(NC(=O)C3([Si](C)(C)C)CCC3)n[nH]c2C1(C)C` [IV-129, N-(2-Fluoro-6-methylphenyl)-6,6-dimethyl-3-[1-(trimethylsilyl)cyclobutanecarboxamido]-4,6-dihydropyrrolo[3,4-c]pyrazole-5 (1H)-carboxamide], the GI50 in experiment [1] (setting [4]) was ≤ 100 nM. Also, the IC50 in the experiment on IL-17 production was ≤ 100 nM.
Consider `CCc1cccc(F)c1NC(=O)N1Cc2c(NC(=O)C3([Si](C)(C)C)CCC3)n[nH]c2C1(C)C` [IV-137, N-(2-Ethyl-6-fluorophenyl)-6,6-dimethyl-3-[1-(trimethylsilyl)cyclobutanecarboxamido]-4,6-dihydropyrrolo[3,4-c]pyrazole-5(1H)-carboxamide], for which, in experiment [1] (setting [4]), the GI50 is ≤ 100 nM. Moreover, in the experiment on IL-17 production, the IC50 is ≤ 100 nM.
Turning to `COc1cccc(F)c1NC(=O)N1Cc2c(NC(=O)C3([Si](C)(C)C)CCC3)n[nH]c2C1(C)C` [IV-161, N-(2-Fluoro-6-methoxyphenyl)-6,6-dimethyl-3-[1-(trimethylsilyl)cyclobutanecarboxamido]-4,6-dihydropyrrolo[3,4-c]pyrazole-5(1H)-carboxamide], the GI50 in experiment [1] (setting [4]) is ≤ 100 nM.
As for `CC1(C)c2[nH]nc(NC(=O)C3([Si](C)(C)C)CCC3)c2CN1C(=O)Nc1c(F)cccc1OC(F)F` [IV-169, N-[2-(Difluoromethoxy)-6-fluorophenyl]-6,6-dimethyl-3-[1-(trimethylsilyl)cyclobutanecarboxamido]-4,6-dihydropyrrolo[3,4-c]pyrazole-5(1H)-carboxamide], the GI50 in experiment [1] (setting [4]) was ≤ 100 nM.
On to `CC1(C)c2[nH]nc(NC(=O)C3([Si](C)(C)C)CCC3)c2CN1C(=O)Nc1c(Cl)cccc1Cl` [IV-199, N-(2,6-Dichlorophenyl)-6,6-dimethyl-3-[1-(trimethylsilyl)cyclobutanecarboxamido]-4,6-dihydropyrrolo[3,4-c]pyrazole-5(1H)-carboxamide], for which the GI50 in experiment [1] (setting [4]) was ≤ 100 nM. Also, the IC50 with IL-17 production was ≤ 100 nM. In experiment [2], the inhibition in vivo at 100 mg/kg was ≥ 50%.
Turning to `Cc1cccc(Cl)c1NC(=O)N1Cc2c(NC(=O)C3([Si](C)(C)C)CCC3)n[nH]c2C1(C)C` [IV-215, N-(2-Chloro-6-methylphenyl)-6,6-dimethyl-3-[1-(trimethylsilyl)cyclobutanecarboxamido]-4,6-dihydropyrrolo[3,4-c]pyrazole-5 (1H)-carboxamide], the GI50 is < 300 nM in experiment [1] (setting [3]) and ≤ 100 nM in experiment [1] (setting [4]). Moreover, the IC50 in the experiment with IL-17 production is ≤ 100 nM. In addition, the inhibition in vivo at 100 mg/kg in experiment [2] was ≥ 50%.
Consider `COc1cccc(Cl)c1NC(=O)N1Cc2c(NC(=O)C3([Si](C)(C)C)CCC3)n[nH]c2C1(C)C` [IV-247, N-(2-Chloro-6-methoxyphenyl)-6,6-dimethyl-3-[1-(trimethylsilyl)cyclobutanecarboxamido]-4,6-dihydropyrrolo[3,4-c]pyrazole-5(1H)-carboxamide], for which the GI50 in experiment [1] (setting [4]) was ≤ 100 nM. For the same molecule, the IC50 in the experiment on IL-17 production is ≤ 100 nM.
Turning to `Cc1cccc(Br)c1NC(=O)N1Cc2c(NC(=O)C3([Si](C)(C)C)CCC3)n[nH]c2C1(C)C` [IV-299, N-(2-Bromo-6-methylphenyl)-6,6-dimethyl-3-[1-(trimethylsilyl)cyclobutanecarboxamido]-4,6-dihydropyrrolo[3,4-c]pyrazole-5 (1H)-carboxamide], the GI50 in experiment [1] (setting [3]) was < 300 nM; in experiment [1] (setting [4]), ≤ 100 nM. Moreover, the concentration for half-maximal inhibition (IC50) in the experiment on IL-17 production was ≤ 100 nM. Further, the inhibition in vivo at 100 mg/kg in experiment [2] was ≥ 50%.
Regarding `Cc1cc(F)ccc1NC(=O)N1Cc2c(NC(=O)C3([Si](C)(C)C)CCC3)n[nH]c2C1(C)C` [IV-359, N-(4-Fluoro-2-methylphenyl)-6,6-dimethyl-3-[1-(trimethylsilyl)cyclobutanecarboxamido]-4,6-dihydropyrrolo[3,4-c]pyrazole-5 (1H)-carboxamide], in experiment [1] (setting [4]), the GI50 is ≤ 100 nM. Moreover, the inhibition in vivo at 100 mg/kg in experiment [2] was ≥ 50%.
With `Cc1ccc(F)cc1NC(=O)N1Cc2c(NC(=O)C3([Si](C)(C)C)CCC3)n[nH]c2C1(C)C` [IV-361, N-(5-Fluoro-2-methylphenyl)-6,6-dimethyl-3-[1-(trimethylsilyl)cyclobutanecarboxamido]-4,6-dihydropyrrolo[3,4-c]pyrazole-5 (1H)-carboxamide], the GI50 is < 300 nM in experiment [1] (setting [3]) and ≤ 100 nM in experiment [1] (setting [4]). In addition, the IC50 in the experiment on IL-17 production is ≤ 100 nM. Moreover, in experiment [2], the inhibition in vivo at 100 mg/kg was ≥ 50%.
As for `Cc1ccc(C)c(NC(=O)N2Cc3c(NC(=O)C4([Si](C)(C)C)CCC4)n[nH]c3C2(C)C)c1` [IV-379, N-(2,5-Dimethylphenyl)-6,6-dimethyl-3-[1-(trimethylsilyl)cyclobutanecarboxamido]-4,6-dihydropyrrolo[3,4-c]pyrazole-5(1H)-carboxamide], the GI50 was < 300 nM in experiment [1] (setting [3]) and ≤ 100 nM in experiment [1] (setting [4]). Besides, in the experiment with IL-17 production, the IC50 is ≤ 100 nM. Besides, the inhibition in vivo at 100 mg/kg in experiment [2] was ≥ 50%.
On to `CC1(C)c2[nH]nc(NC(=O)C3([Si](C)(C)C)CCC3)c2CN1C(=O)Nc1c(F)ccc(F)c1F` [IV-597, 6,6-Dimethyl-N-(2,3,6-trifluorophenyl)-3-[1-(trimethylsilyl)cyclobutanecarboxamido]-4,6-dihydropyrrolo[3,4-c]pyrazole-5(1H)-carboxamide], for which the GI50 in experiment [1] (setting [4]) is ≤ 100 nM. Besides, the inhibition in vivo at 100 mg/kg in experiment [2] was ≥ 50%.
With `CC1(C)c2[nH]nc(NC(=O)C3([Si](C)(C)C)CCC3)c2CN1C(=O)Nc1c(F)ccc2cc(Cl)oc12` [IV-1063, N-(2-Chloro-6-fluorobenzofuran-7-yl)-6,6-dimethyl-3-[1-(trimethylsilyl)cyclobutanecarboxamido]-4,6-dihydropyrrolo[3,4-c]pyrazole-5(1H)-carboxamide], in experiment [1] (setting [4]), the GI50 is ≤ 100 nM. The inhibition in vivo at 100 mg/kg in experiment [2] is ≥ 50%.
